Data on 26 compounds can be found in patent US8912216B2, “Hetaryl-[1,8]naphthyridine derivatives” (Merck Patent GmbH, priority 2010, dated 2014).

Structures are written as SMILES. Counter-ions that a name gives are not always drawn. Like-named read-outs stand apart in the source and are kept apart here.

For experiment [1], the target named is T1, GST-ALK5 (Homo sapiens, UniProt P36897).
T1 sequence (P36897 34-503): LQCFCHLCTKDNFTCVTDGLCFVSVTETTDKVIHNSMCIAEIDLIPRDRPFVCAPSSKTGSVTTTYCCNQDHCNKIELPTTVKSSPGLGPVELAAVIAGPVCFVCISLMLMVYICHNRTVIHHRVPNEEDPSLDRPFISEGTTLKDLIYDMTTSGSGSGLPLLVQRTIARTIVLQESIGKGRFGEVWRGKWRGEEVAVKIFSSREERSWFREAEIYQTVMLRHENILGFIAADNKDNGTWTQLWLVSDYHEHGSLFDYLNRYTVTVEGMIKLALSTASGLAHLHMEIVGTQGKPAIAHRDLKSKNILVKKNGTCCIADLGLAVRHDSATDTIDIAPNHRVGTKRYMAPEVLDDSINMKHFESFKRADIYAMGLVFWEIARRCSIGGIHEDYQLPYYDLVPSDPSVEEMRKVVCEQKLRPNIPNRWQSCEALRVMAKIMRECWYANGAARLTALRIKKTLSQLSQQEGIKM
Put plainly: In-vitro (enzyme) kinase assay, 384-well flashplate (Example 36). Type of experiment: biochemical. To be noted: GST-ALK5, GST-SMAD2 substrate, 3 mM ATP, 30° C., 45 min; read-out: TβR activity (Example 36). The method in brief:
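Radiometric flashplate assay: 31.2 nM GST-ALK5 phosphorylating 439 nM GST-SMAD2 with 3 mM ATP plus ³³P-ATP, in HEPES/MgCl2/MnCl2/DTT/BSA buffer pH 7.4, 45 min at 30 °C, 5-10 compound concentrations. EDTA stop, filtration and washing, then radioactivity counted; IC50 derived from the curve.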

In experiment [2] the test system is TGF-beta-induced phosphorylation of Smad2 and Smad3 in Mv1-Lu cells. Put plainly: Inhibition of Smad2/3 phosphorylation in Mv1Lu cells (Example 35A). The format is cell-based, mink Mustela vison. To be noted: Neogale vison, read-out: TβR activity (Example 35A). The method in brief: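 Serum-starved (16-20 h) Mv1-Lu mink lung epithelial cells were pre-incubated 1.5 h with compound dilutions (0.2% DMSO), then stimulated 1 h with 5 ng/ml TGF-beta 1. Phospho-Smad2 (Ser465/467)/Smad3 (Ser423/425) in lysates was measured by ELISA. IC50 came from dose-response fits between stimulated and unstimulated controls.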

Where [3] appears, read: Mv1-Lu cells, TGF-beta 1 5 ng/ml, phospho-Smad2/3 ELISA.

Consider `CC(C)N1CCC(c2ccc(-c3cncc(-c4cc(-c5cc(Cl)ccc5F)nc5ncccc45)c3)cc2)CC1` [compound 174, 2-(5-Chloro-2-fluoro-phenyl)-4-{5-[4-(1-isopropyl-piperidin-4-yl)-phenyl]-pyridin-3-yl}-[1,8]naphthyridine], for which the IC50 in experiment [1] and in experiment [2] (setting [3]) was under 100 nM each time.

For `CN1CCN(c2cc(-c3cncc(-c4cc(-c5cc(Cl)ccc5F)nc5ncccc45)c3)ncn2)CC1` [compound 119, 2-(5-Chloro-2-fluoro-phenyl)-4-{5-[6-(4-methyl-piperazin-1-yl)-pyrimidin-4-yl]-pyridin-3-yl}-[1,8]naphthyridine], the IC50 in experiment [1] and in experiment [2] (setting [3]) was 100 to 1000 nM throughout.

As to `CN1CCN(c2cccc(-c3cncc(-c4cc(-c5cc(Cl)ccc5F)nc5ncccc45)c3)n2)CC1` [compound 141, 2-(5-Chloro-2-fluoro-phenyl)-4-[6-(4-methyl-piperazin-1-yl)-[2,3′]bipyridinyl-5′-yl]-[1,8]naphthyridine], the IC50 in experiment [1] and in experiment [2] (setting [3]) was 100 to 1000 nM in each case.

As to `CN1CCC(n2cc(-c3cncc(-c4cc(-c5ccccc5F)nc5ncccc45)n3)cn2)CC1` [compound 85, 2-(2-Fluoro-phenyl)-4-{6-[1-(1-methyl-piperidin-4-yl)-1H-pyrazol-4-yl]-pyrazin-2-yl}-[1,8]naphthyridine], the results for the IC50 in experiment [1] and in experiment [2] (setting [3]) were under 100 nM and 100 to 1000 nM, respectively.

Consider `Fc1ccccc1-c1cc(-c2cncc(-c3cnn(C4CCNCC4)c3)c2)c2cccnc2n1` [compound 29, 2-(2-Fluoro-phenyl)-4-[5-(1-piperidin-4-yl-1H-pyrazol-4-yl)-pyridin-3-yl]-[1,8]naphthyridine dihydrochloride], for which the IC50 in experiment [1] and in experiment [2] was under 100 nM in each case.

On to `Cc1cccc(-c2cc(-c3cncc(-c4ccccc4)c3)c3cccnc3n2)n1` [compound 5, 2-(6-Methyl-pyridin-2-yl)-4-(5-phenyl-pyridin-3-yl)-[1,8]naphthyridine], for which the IC50 in experiment [1] fell in the range of 100 to 1000 nM; in experiment [2] (setting [3]), 1000 to 10000 nM.

With `OCCN1CCC(n2cc(-c3cncc(-c4cc(-c5cc(Cl)ccc5F)nc5ncccc45)c3)cn2)CC1` [compound 45, 2-[4-(4-{5-[2-(5-Chloro-2-fluoro-phenyl)-[1,8]naphthyridin-4-yl]-pyridin-3-yl}-pyrazol-1-yl)-piperidin-1-yl]-ethanol], the IC50 in experiment [1] and in experiment [2] (setting [3]) was under 100 nM in each case.

With `CN1CC[C@@H](n2cc(-c3cncc(-c4cc(-c5ccccc5F)nc5ncccc45)c3)cn2)C1` [compound 64, 2-(2-Fluoro-phenyl)-4-{5-[1-((R)-1-methyl-pyrrolidin-3-yl)-1H-pyrazol-4-yl]-pyridin-3-yl}-[1,8]naphthyridine], the IC50 in experiment [1] and in experiment [2] (setting [3]) was under 100 nM throughout.

For the compound `CN1CCC(n2cc(-c3cncc(-c4cc(-c5cc(Cl)ccc5F)nc5ncccc45)n3)cn2)CC1` [compound 51, 2-(5-Chloro-2-fluoro-phenyl)-4-{6-[1-(1-methyl-piperidin-4-yl)-1H-pyrazol-4-yl]-pyrazin-2-yl}-[1,8]naphthyridine], the IC50 in experiment [1] and in experiment [2] (setting [3]) was under 100 nM in each case.

As to `NS(=O)(=O)c1cccc(-c2cncc(-c3cc(-c4cc(Cl)ccc4F)nc4ncccc34)c2)c1` [compound 135, 3-{5-[2-(5-Chloro-2-fluoro-phenyl)-[1,8]naphthyridin-4-yl]-pyridin-3-yl}-benzene-sulfonamide], the IC50 in experiment [1] is under 100 nM; in experiment [2] (setting [3]), 100 to 1000 nM.

Consider `CN1CCC(n2cc(-c3cncc(-c4cc(-c5ccccc5)nc5ncccc45)c3)cn2)CC1` [compound 63, 4-{5-[1-(1-Methyl-piperidin-4-yl)-1H-pyrazol-4-yl]-pyridin-3-yl}-2-phenyl-[1,8]naphthyridine], for which the IC50 was under 100 nM in experiment [1] and 100 to 1000 nM in experiment [2] (setting [3]).

With `Nc1cccnc1-c1cncc(-c2cc(-c3cc(Cl)ccc3F)nc3ncccc23)c1` [compound 129, 5′-[2-(5-Chloro-2-fluoro-phenyl)-[1,8]naphthyridin-4-yl]-[2,3′]bipyridinyl-3-ylamine], the IC50 in experiment [1] and in experiment [2] (setting [3]) was over 10000 nM each time.

`CN(C)CCCOc1ccc(-c2cncc(-c3cc(-c4cc(Cl)ccc4F)nc4ncccc34)c2)cc1` [compound 139, [3-(4-{5-[2-(5-Chloro-2-fluoro-phenyl)-[1,8]naphthyridin-4-yl]-pyridin-3-yl}-phenoxy)-propyl]-dimethyl-amine]: the IC50 in experiment [1] and in experiment [2] (setting [3]) was under 100 nM throughout.

For the compound `COCCN1CCC(n2cc(-c3cncc(-c4cc(-c5cc(F)ccc5F)nc5ncccc45)c3)cn2)CC1` [compound 50, 2-(2,5-Difluoro-phenyl)-4-(5-{1-[1-(2-methoxy-ethyl)-piperidin-4-yl]-1H-pyrazol-4-yl}-pyridin-3-yl)-[1,8]naphthyridine], the IC50 in experiment [1] and in experiment [2] (setting [3]) was under 100 nM each time.

With `Fc1ccc(Cl)cc1-c1cc(-c2cncc(-c3ccccc3)c2)c2cccnc2n1` [compound 4, 2-(5-Chloro-2-fluoro-phenyl)-4-(5-phenyl-pyridin-3-yl)-[1,8]naphthyridine], the IC50 in experiment [1] and in experiment [2] (setting [3]) was 100 to 1000 nM in each case.

As for `NCCc1cccc(-c2cncc(-c3cc(-c4cc(Cl)ccc4F)nc4ncccc34)c2)c1` [compound 166, 2-(3-{5-[2-(5-Chloro-2-fluoro-phenyl)-[1,8]naphthyridin-4-yl]-pyridin-3-yl}-phenyl)-ethylamine], the IC50 in experiment [1] and in experiment [2] (setting [3]) was under 100 nM in each case.

Take `OCCCn1cc(-c2cncc(-c3cc(-c4cc(F)ccc4F)nc4ncccc34)c2)cn1` [compound 89, 3-(4-{5-[2-(2,5-Difluoro-phenyl)-[1,8]naphthyridin-4-yl]-pyridin-3-yl}-pyrazol-1-yl)-propan-1-ol]: the IC50 in experiment [1] was under 100 nM; in experiment [2] (setting [3]), 100 to 1000 nM.

`Fc1ccc(Cl)cc1-c1cc(-c2cccnc2-c2ccccc2)c2cccnc2n1` [compound 101, 2-(5-Chloro-2-fluoro-phenyl)-4-(2-phenyl-pyridin-3-yl)-[1,8]naphthyridine]: the IC50 in experiment [1] and in experiment [2] (setting [3]) was over 10000 nM throughout.

Take `Fc1ccccc1-c1cc(-c2cncc(-c3ccc(N4CCNCC4)nc3)n2)c2cccnc2n1` [compound 81, 2-(2-Fluoro-phenyl)-4-[6-(6-piperazin-1-yl-pyridin-3-yl)-pyrazin-2-yl]-[1,8]naphthyridine]: the IC50 was under 100 nM in experiment [1] and 100 to 1000 nM in experiment [2] (setting [3]).

`Fc1ccc(Cl)cc1-c1cc(-c2cccc(-c3ccccc3)n2)c2cccnc2n1` [compound 12, 2-(5-Chloro-2-fluoro-phenyl)-4-(6-phenyl-pyridin-2-yl)-[1,8]naphthyridine]: the IC50 in experiment [1] and in experiment [2] (setting [3]) was over 10000 nM in each case.

On to `CN1CCN(c2ccc(-c3cncc(-c4cc(-c5cc(F)ccc5F)nc5ncccc45)c3)cn2)CC1` [compound 121, 2-(2,5-Difluoro-phenyl)-4-[6′-(4-methyl-piperazin-1-yl)-[3,3′]bipyridinyl-5-yl]-[1,8]naphthyridine], for which the IC50 was under 100 nM in experiment [1] and 100 to 1000 nM in experiment [2] (setting [3]).

Consider `CCN1CCc2ccc(-c3cncc(-c4cc(-c5cc(Cl)ccc5F)nc5ncccc45)c3)cc2C1` [compound 173, 2-(5-Chloro-2-fluoro-phenyl)-4-[5-(2-ethyl-1,2,3,4-tetrahydro-isoquinolin-7-yl)-pyridin-3-yl]-[1,8]naphthyridine], for which the IC50 in experiment [1] and in experiment [2] (setting [3]) was under 100 nM each time.

`Fc1ccc(F)c(-c2cc(-c3cccnc3)c3cccnc3n2)c1` [compound 137, 2-(2,5-Difluoro-phenyl)-4-pyridin-3-yl-[1,8]naphthyridine]: the values for the IC50 in experiment [1] and in experiment [2] (setting [3]) were 1000 to 10000 nM and over 10000 nM, respectively.

As to `Fc1ccc(Cl)cc1-c1cc(-c2cncc(-c3ccc4c(c3)CNCC4)c2)c2cccnc2n1` [compound 136, 2-(5-Chloro-2-fluoro-phenyl)-4-[5-(1,2,3,4-tetrahydro-isoquinolin-7-yl)-pyridin-3-yl]-[1,8]naphthyridine], the IC50 in experiment [1] and in experiment [2] (setting [3]) was under 100 nM throughout.

As to `Nc1nccc(-c2cncc(-c3cc(-c4cc(Cl)ccc4F)nc4ncccc34)c2)n1` [compound 109, 4-{5-[2-(5-Chloro-2-fluoro-phenyl)-[1,8]naphthyridin-4-yl]-pyridin-3-yl}-pyrimidin-2-ylamine], the IC50 is under 100 nM in experiment [1] and 100 to 1000 nM in experiment [2] (setting [3]).

`Cn1cc(-c2cncc(-c3cc(-c4ccccc4F)nc4ncccc34)c2)cn1` [compound 15, 2-(2-Fluoro-phenyl)-4-[5-(1-methyl-1H-pyrazol-4-yl)-pyridin-3-yl]-[1,8]naphthyridine]: the values for the IC50 in experiment [1] and in experiment [2] (setting [3]) were under 100 nM and 100 to 1000 nM, respectively.
